In patent US20060216253A1, “Whitening cosmetics containing morus alba extracts” (Time and Cross, Inc., priority 2005, published 2006):

Legend:
melan-a cell line [1] = assay: Melanin production in melan-a cell line; assay type: cell-based; conditions: melan-a cells; for Melanin production (%): 72 hr; for inhibitory effects on melanin production (in words): any of the concentrations assayed
Procedure: (§1) Melan-a cells were grown in 10 mL of RPMI 1640 medium supplemented with antibiotics, 10% fetal bovine serum (FBS), and 20 nM TPA. The cell suspension was inoculated in a 24-well plate (10^5 cells/mL) and the cells were allowed to completely adhere to the plate for 24 hr. Test samples dissolved in DMSO were added to the plate and incubated at 37° C. for 72 hr in a CO2 incubator. The culture medium was then thoroughly removed and the cells were isolated through trypsin treatment. The suspensions were then centrifuged for 5 min to collect cells, which were then treated with 5% trichloroacetic acid (TCA), stirred and centrifuged to precipitate the melanin. Melanin was washed with PBS and dissolved in 1 N NaOH. Absorbance at 475 nm was measured. Melanin concentration was determined from a standard concentration curve of synthetic melanin (SIGMA Co., USA).

Mushroom Tyrosinase [2] = assay: Extended duration of mushroom tyrosinase inhibition (up to 24 hours); assay type: biochemical; conditions: for reaction time until loss of tyrosinase inhibitory activity: 37° C., FIG. 3
Procedure: (§2) L-Tyrosine, the substrate for tyrosinase, was dissolved in 50 mM sodium phosphate buffer (pH6.8) to prepare a solution of 0.1 mg/mL L-tyrosine. […] 100 μL of the L-tyrosine solution was introduced into a test tube, and 100 μL of 50 mM sodium phosphate buffer (pH6.8) with or without test samples were added thereto, and then 10 μL of 200 U/mL tyrosinase were mixed and incubated at 37° C. for 15 min.
Using the experimental conditions described in the Mushroom Tyrosinase experiment described above, the reaction mixtures, containing various concentrations from 1 μg/mL to 50 μg/mL of the agents assayed, were incubated at 37° C. and spectrophotometric measurements of dopachrome were made at time intervals of up to 24 hours.

[3] = test system: murine melanoma B16 cells; assay: Cell viability (MTT assay) of murine melanoma B-16 cells; assay type: cell-based
Procedure: (§3) The melanoma cell line was grown in DMEM culture medium containing 4.5 g of glucose/l, 10% fetal bovine serum and 1% antibiotic agent and cultivated at 37° C. under a condition of 5% CO2. The cell suspension was inoculated in a 50 mL T-flask (3×10^5 cells/mL) and the cells were allowed to completely adhere to the plate for 24 hr. Then, test samples diluted in DMEM medium at concentrations of 1, 5, 10, 50, and 100 μg/mL were added to the cultivated cells, and the mixture was cultivated at 5% CO2 and 37° C. for 3 days. After cultivation, culture medium was thoroughly removed and the cells were isolated via trypsin treatment. The suspensions were then centrifuged for 5 min to collect cells. The obtained cells were treated with 5% trichloroacetic acid (TCA), stirred and centrifuged. The precipitated melanin was washed with phosphate buffered saline (PBS), and treated with 1 N NaOH to dissolve the melanin therein. Absorbance at 475 nm was measured. Melanin concentration was determined from a standard concentration curve of synthetic melanin (SIGMA Co., USA).
(§4) We used the MTT assay to determine the percentage of viable cells. After cultivation was completed, a solution of MTT was added to the cultivation solution and the mixture was incubated at 37° C. for 4 hr. After incubation, culture medium was thoroughly removed, and the residue was treated with DMSO (Dimethyl sulfoxide) and shaken for 20 min. The optical density at 580 nm was measured by an ELISA microplate reader.

[4] = test system: murine melanoma B16 cells; assay: Melanin production in murine melanoma B-16 cells; assay type: cell-based; conditions: for Melanin production (%): B16 cells, 3 days; for inhibitory effects on melanin production (in words): any of the concentrations assayed
Procedure: as §3

melan-a cell line [5] = assay: Cell viability (MTT assay) of melan-a cell line; assay type: cell-based
Procedure: as §1, §4

Mushroom Tyrosinase [6] = assay: Inhibitory effects on mushroom tyrosinase (dopachrome, OD490, 15 min); assay type: biochemical; conditions: for IC50: 37° C., 15 min, L-tyrosine substrate
Procedure: as §2
The amount of dopachrome in the reaction mixture was determined spectrophotmetrically using absorbance measurement at 490 nm.

melanocytes = assay: Microscopic observation of pigmentation of confluent melanocyte monolayer; assay type: cell-based; conditions: cell line not specified
From the text: The pigmentation of a confluent monolayer of melanocytes is visible microscopically, as the cells contain black melanin pigment.

| Structure (SMILES) | Melanin production (%) (melan-a cell line [1]; 1 μg/mL) | Melanin production (%) (melan-a cell line [1]; 5 μg/mL) | Melanin production (%) (melan-a cell line [1]; 10 μg/mL) | Melanin production (%) (melan-a cell line [1]; 50 μg/mL) | Melanin production (%) (melan-a cell line [1]; 100 μg/mL) | inhibitory effects on melanin production (in words) (melan-a cell line [1]) | reaction time until loss of tyrosinase inhibitory activity (Mushroom Tyrosinase [2]; 2 μg/mL) | reaction time until loss of tyrosinase inhibitory activity (Mushroom Tyrosinase [2]; 5 μg/mL) | Cell viability (%) ([3]; B16 cells, 1 μg/mL, MTT) | Cell viability (%) ([3]; B16 cells, 5 μg/mL, MTT) | Cell viability (%) ([3]; B16 cells, 10 μg/mL, MTT) | Cell viability (%) ([3]; B16 cells, 50 μg/mL, MTT) | Cell viability (%) ([3]; B16 cells, 100 μg/mL, MTT) | Melanin production (%) ([4]; 1 μg/mL) | Melanin production (%) ([4]; 5 μg/mL) | Melanin production (%) ([4]; 10 μg/mL) | Melanin production (%) ([4]; 50 μg/mL) | Melanin production (%) ([4]; 100 μg/mL) | inhibitory effects on melanin production (in words) ([4]; melanoma B-16 cells) | Cell viability (%) (melan-a cell line [5]; melan-a cells, 1 μg/mL, MTT) | other results |
| --- | --- | --- | --- | --- | --- | --- | --- | --- | --- | --- | --- | --- | --- | --- | --- | --- | --- | --- | --- | --- | --- |
| O=c1cc(CO)occ1O [Kojic acid, kojic acid] | 103.4 ± 5.4 | 100.5 ± 8.2 | 99.4 ± 7.1 | 95.1 ± 6.7 | 92.4 ± 8.0 | did not show inhibitory effects on melanin production | loses activity within two hours | within five hours | 95.2 ± 8.3 | 97.2 ± 7.6 | 96.2 ± 5.0 | 86.7 ± 3.4 | 81.7 ± 8.5 | 102.4 ± 4.7 | 98.2 ± 7.1 | 96.5 ± 3.7 | 94.1 ± 5.2 | 91.6 ± 7.1 | did not show inhibitory effects on melanin production | 95.3 ± 8.0 | Cell viability (%) (melan-a cell line [5]; melan-a cells, 5 μg/mL, MTT): 96.8 ± 4.7%; Cell viability (%) (melan-a cell line [5]; melan-a cells, 10 μg/mL, MTT): 95.1 ± 9.0%; Cell viability (%) (melan-a cell line [5]; melan-a cells, 50 μg/mL, MTT): 84.2 ± 8.2%; Cell viability (%) (melan-a cell line [5]; melan-a cells, 100 μg/mL, MTT): 80.5 ± 8.3% |
| OC[C@H]1O[C@@H](Oc2ccc(O)cc2)[C@H](O)[C@@H](O)[C@@H]1O [Arbutin, arbutin] | 104.2 ± 3.2 | 103.7 ± 4.6 | 102.0 ± 5.7 | 100.4 ± 4.0 | 99.5 ± 7.2 | did not show inhibitory effects on melanin production | loses activity in about one hour | loses activity in about one hour | 102.4 ± 5.3 | 100.1 ± 7.8 | 98.5 ± 6.3 | 96.6 ± 8.0 | 93.2 ± 5.6 | 99.4 ± 2.1 | 100.8 ± 4.5 | 103.2 ± 1.9 | 98.9 ± 8.2 | 98.2 ± 6.9 | did not show inhibitory effects on melanin production | 104.2 ± 7.2 | IC50 (Mushroom Tyrosinase [6]): 145 µM; Cell viability (%) (melan-a cell line [5]; melan-a cells, 5 μg/mL, MTT): 105.2 ± 8.3%; Cell viability (%) (melan-a cell line [5]; melan-a cells, 10 μg/mL, MTT): 100.7 ± 5.0%; Cell viability (%) (melan-a cell line [5]; melan-a cells, 50 μg/mL, MTT): 98.3 ± 7.7%; Cell viability (%) (melan-a cell line [5]; melan-a cells, 100 μg/mL, MTT): 93.8 ± 5.6% |
| Oc1cc(O)cc(/C=C/c2ccc(O)cc2O)c1 [Oxyresveratrol, oxyresveratrol] | 95.1 ± 3.1 | 90.2 ± 6.4 | 88.5 ± 7.4 | 60.3 ± 9.1 | 20.6 ± 4.9 | – | – | – | – | – | – | – | – | 94.3 ± 7.7 | 90.8 ± 4.4 | 87.5 ± 6.9 | 57.3 ± 8.1 | 19.5 ± 8.2 | – | – | reduction in melanin production (melan-a cell line [1]; 100 μg/mL): 79.4%; IC50 (Mushroom Tyrosinase [6]): 2.4 µM; inhibitory effect on mushroom tyrosinase (in words) (Mushroom Tyrosinase [6]; FIGS. 1 and 2): the most potent inhibitors of mushroom tyrosinase; inhibition of tyrosinase activity after 24 hours (Mushroom Tyrosinase [2]; 24 hours incubation, even at the lower concentrations tested, FIG. 4): about 90%; IC50 (Mushroom Tyrosinase [2]; read-out: IC50 for tyrosinase inhibition after 24 hours incubation, 24 hours incubation): 2.6 µM; Cell viability (%) ([3]; mouse, 3 days, 1 μg/mL): 99.5 ± 5.4%; Cell viability (%) ([3]; mouse, 3 days, 5 μg/mL): 97.4 ± 5.9%; Cell viability (%) ([3]; mouse, 3 days, 10 μg/mL): 95.3 ± 7.6%; Cell viability (%) ([3]; mouse, 3 days, 50 μg/mL): 66.2 ± 8.3%; Cell viability (%) ([3]; mouse, 3 days, 100 μg/mL): 23.1 ± 4.8%; pigmentation of treated cells observed microscopically (melanocytes): Reduced pigmentation; reduction in melanin production ([4]; melanoma B-16 cells, 100 μg/mL): 80.5%; Cell viability (%) (melan-a cell line [5]; mouse, 72 h, 1 μg/mL): 99.0 ± 5.8%; Cell viability (%) (melan-a cell line [5]; mouse, 72 h, 5 μg/mL): 96.9 ± 7.9%; Cell viability (%) (melan-a cell line [5]; mouse, 72 h, 10 μg/mL): 94.7 ± 4.2%; Cell viability (%) (melan-a cell line [5]; mouse, 72 h, 50 μg/mL): 68.5 ± 5.5%; Cell viability (%) (melan-a cell line [5]; mouse, 72 h, 100 μg/mL): 27.3 ± 7.8% |
